Reference: ChEMBL document CHEMBL1156141, “Synthesis and biological evaluation of novel thiocolchicine-podophyllotoxin conjugates” (Eur J Med Chem, 2010)
Activity calls are given as the source filed them. No cut-off for these calls is given here.

Assays:
[1] = tested on: A549; assay: Inhibition of microtubule in human A549 cells assessed as roundish cells at 0.5 uM after 1 hr by immunofluorescence analysis; format: cell-based
[2] = tested on: A549; details: Homo sapiens, at 0.5 µM
Description: Inhibition of microtubule in human A549 cells assessed as roundish cells at 0.5 uM after 24 hrs by immunofluorescence analysis

[3] = tested on: A549; details: Homo sapiens, at 0.5 µM; remark: listed apart in the source
Description: Inhibition of microtubule in human A549 cells assessed as network disappearane at 0.5 uM after 1 hr by immunofluorescence analysis

[4] = Chemical stability assessed as disulfide cleavage after 3 hrs by ESI-MS in presence of L-glutathione; format: physicochemical
[5] = tested on: A549; assay: Inhibition of microtubule in human A549 cells assessed as microtubule organization at 0.5 uM after 1 hr by immunofluorescence analysis; format: cell-based

Compound | inhibition [1] [%] | inhibition [2] | inhibition [3] | Stability [4] | inhibition [5]
COc1cc([C@@H]2c3cc4c(cc3[C@H](OC(=O)CSSCC(=O)O[C@H]3c5cc6c(cc5[C@@H](c5cc(OC)c(OC)c(OC)c5)[C@H]5C(=O)OC[C@@H]53)OCO6)[C@H]3COC(=O)[C@H]23)OCO4)cc(OC)c1OC | 50 | Active | – | – | –
COc1cc2c(c(OC)c1OC)-c1ccc(SC)c(=O)cc1[C@@H](NC(=O)CCSSCCC(=O)N[C@H]1CCc3cc(OC)c(OC)c(OC)c3-c3ccc(SC)c(=O)cc31)CC2 | – | Active | Active | – | –
COc1cc([C@@H]2c3cc4c(cc3[C@H](O)[C@H]3COC(=O)[C@H]23)OCO4)cc(OC)c1OC | – | Active | Active | – | –
COc1cc2c(c(OC)c1OC)-c1ccc(SC)c(=O)cc1[C@@H](NC(=O)CSSCC(=O)N[C@H]1CCc3cc(OC)c(OC)c(OC)c3-c3ccc(SC)c(=O)cc31)CC2 | – | Active | Active | Unstable | –
COc1cc2c(c(OC)c1OC)-c1ccc(SC)c(=O)cc1[C@@H](NC(=O)CCCCC(=O)N[C@H]1CCc3cc(OC)c(OC)c(OC)c3-c3ccc(SC)c(=O)cc31)CC2 | 50 | Active | – | – | –
COc1cc([C@@H]2c3cc4c(cc3[C@H](OC(=O)CCCSSCCCC(=O)N[C@H]3CCc5cc(OC)c(OC)c(OC)c5-c5ccc(SC)c(=O)cc53)[C@H]3COC(=O)[C@H]23)OCO4)cc(OC)c1OC | – | Active | Active | – | –
COc1cc2c(c(OC)c1OC)-c1ccc(SC)c(=O)cc1[C@@H](NC(=O)C(N)CCCCC(N)C(=O)N[C@H]1CCc3cc(OC)c(OC)c(OC)c3-c3ccc(SC)c(=O)cc31)CC2 (stereo partly specified) | – | Active | – | – | inactive
COc1cc([C@@H]2c3cc4c(cc3[C@H](OC(=O)CCCCC(=O)O[C@H]3c5cc6c(cc5[C@@H](c5cc(OC)c(OC)c(OC)c5)[C@H]5C(=O)OC[C@@H]53)OCO6)[C@H]3COC(=O)[C@H]23)OCO4)cc(OC)c1OC | – | Active | – | – | inactive
COc1cc([C@@H]2c3cc4c(cc3[C@H](OC(=O)C(N)CSSCC(N)C(=O)O[C@H]3c5cc6c(cc5[C@@H](c5cc(OC)c(OC)c(OC)c5)[C@H]5C(=O)OC[C@@H]53)OCO6)[C@H]3COC(=O)[C@H]23)OCO4)cc(OC)c1OC (stereo partly specified) | – | Active | Active | – | –
COc1cc2c(c(OC)c1OC)-c1ccc(SC)c(=O)cc1[C@@H](NC(=O)C(N)CSSCC(N)C(=O)N[C@H]1CCc3cc(OC)c(OC)c(OC)c3-c3ccc(SC)c(=O)cc31)CC2 (stereo partly specified) | 50 | Active | – | – | –
